The numbers were not newly measured in US10278869B2, “Apparatus for aspirating, irrigating and cleansing wounds” (SMITH & NEPHEW PLC, priority 2002, dated 2019), which cites them from elsewhere.

The conditions of this data set: EP standard, CRS.

For gentamycin sulphate, the activity is recorded as 616 IU mg^−1.
